From patent publication US10336702B2, “Pharmaceutically active compounds” (BERGENBIO ASA, priority 2015, dated 2019)

What was measured:
Akt1 = target: T1, Akt1 (Homo sapiens, UniProt P31749); assay: Akt activation assay (PDK1-mediated activation, LANCE Ultra crosstide TR-FRET), Akt1; assay type: biochemical; details: read-out: Biological Assay 1 IC50 (nM) Akt1
T1 construct: unspecified tag, removed (detagged) (cleaved yes); purchased SignalChem and Proteros (Akt1); Merck Millipore (PDK1) 14-452 (PDK1); none given for Akt1
T1 sequence (P31749 whole entry): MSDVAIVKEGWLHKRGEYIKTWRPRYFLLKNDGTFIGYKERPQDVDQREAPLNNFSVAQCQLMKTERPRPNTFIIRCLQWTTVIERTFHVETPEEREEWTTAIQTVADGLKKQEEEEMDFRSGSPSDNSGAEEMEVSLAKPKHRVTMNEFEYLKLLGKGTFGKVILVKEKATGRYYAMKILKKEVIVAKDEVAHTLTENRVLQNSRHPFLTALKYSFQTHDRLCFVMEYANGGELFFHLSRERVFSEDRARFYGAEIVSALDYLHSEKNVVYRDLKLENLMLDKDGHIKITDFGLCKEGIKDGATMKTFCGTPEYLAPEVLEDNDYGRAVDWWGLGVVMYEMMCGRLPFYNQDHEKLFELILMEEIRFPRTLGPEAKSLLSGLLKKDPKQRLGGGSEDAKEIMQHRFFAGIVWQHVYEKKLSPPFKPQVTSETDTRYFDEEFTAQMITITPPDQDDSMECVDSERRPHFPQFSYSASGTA
In short: (§1)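 Two-step cascade format: Akt1, Akt2 or Akt3 phosphorylates Ulight-crosstide (100 nM) only after activation by 5 nM PDK1 in presence of PtdIns(3,4,5)P3 vesicles and 100 μM ATP. Product quantified by Eu-antibody TR-FRET after 30 min reaction.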

p-Akt1 in LNCaP cells = target: T2, p-Akt1 in LNCaP cells (Homo sapiens, UniProt P31749); assay: Phospho-Akt cellular SureFire assay, p-Akt1 in LNCaP cells; assay type: cell-based; details: read-out: Biological Assay 2 IC50 (nM) Akt1 LNCaP
T2 construct: SureFire assays to detect cellular p-Akt1, p-Akt2 and p-Akt3 levels in WM115 cells (Akt2/3) and LNCaP cells (Akt1); endogenous in cells; host or cells: LNCaP (ECACC 89110211)
T2 sequence (P31749 whole entry): as above
In short: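 Phospho-Thr308 Akt1 detected by AlphaScreen SureFire proximity beads in LNCaP lysates after 15 min compound treatment at 37 °C in 0.1% FBS medium, unstimulated, 0.3% DMSO. Cells plated at 5×10^4/well overnight; IC50 from a 4-parameter equation.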

Akt2 = target: T3, Akt2 (Homo sapiens, UniProt P31751); assay: Akt activation assay (PDK1-mediated activation, LANCE Ultra crosstide TR-FRET), Akt2; assay type: biochemical; details: read-out: Biological Assay 1 IC50 (nM) Akt2
T3 construct: unspecified tag, removed (detagged) (cleaved yes); purchased SignalChem and Proteros (Akt2); Merck Millipore (PDK1) 14-452 (PDK1); none given for Akt2
T3 sequence (P31751 whole entry): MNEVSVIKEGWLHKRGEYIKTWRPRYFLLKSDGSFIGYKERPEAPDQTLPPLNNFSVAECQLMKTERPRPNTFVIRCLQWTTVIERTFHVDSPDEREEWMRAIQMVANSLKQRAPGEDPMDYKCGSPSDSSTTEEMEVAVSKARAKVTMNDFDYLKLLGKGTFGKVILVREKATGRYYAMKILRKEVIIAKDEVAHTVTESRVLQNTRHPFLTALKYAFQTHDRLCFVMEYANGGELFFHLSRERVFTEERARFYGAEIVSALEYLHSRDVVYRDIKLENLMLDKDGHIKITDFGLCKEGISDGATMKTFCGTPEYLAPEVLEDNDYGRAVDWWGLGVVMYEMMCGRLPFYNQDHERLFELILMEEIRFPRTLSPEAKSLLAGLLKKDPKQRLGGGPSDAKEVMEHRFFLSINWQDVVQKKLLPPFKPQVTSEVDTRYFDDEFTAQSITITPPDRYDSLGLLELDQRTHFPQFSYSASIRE
In short: as §1

p-Akt2 in WM115 cells = target: T4, p-Akt2 in WM115 cells (Homo sapiens, UniProt P31751); assay: Phospho-Akt cellular SureFire assay, p-Akt2 in WM115 cells; assay type: cell-based; details: insulin stimulated, read-out: Biological Assay 2 IC50 (nM) Akt2 WM115
T4 construct: SureFire assays to detect cellular p-Akt1, p-Akt2 and p-Akt3 levels in WM115 cells (Akt2/3) and LNCaP cells (Akt1); endogenous in cells; host or cells: WM115 (ECACC 91061232), insulin-stimulated
T4 sequence (P31751 whole entry): as above
In short: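 Readout is a bead-proximity SureFire assay pairing a pThr308 Akt antibody with a total Akt2 antibody, lysate and beads incubated 2 h plus 2 h at room temperature in the dark. Before lysis, serum-starved WM115 cells received 100 nM insulin (10 min), then test compound (15 min, 0.3% DMSO); IC50 by 4-parameter equation.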

p-Akt3 in WM115 cells = target: T5, p-Akt3 in WM115 cells (Homo sapiens, UniProt Q9Y243); assay: Phospho-Akt cellular SureFire assay, p-Akt3 in WM115 cells; assay type: cell-based; details: insulin stimulated, read-out: Biological Assay 2 IC50 (nM) Akt3 WM115
T5 construct: SureFire assays to detect cellular p-Akt1, p-Akt2 and p-Akt3 levels in WM115 cells (Akt2/3) and LNCaP cells (Akt1); endogenous in cells; host or cells: WM115 (ECACC 91061232), insulin-stimulated
T5 sequence (Q9Y243 whole entry): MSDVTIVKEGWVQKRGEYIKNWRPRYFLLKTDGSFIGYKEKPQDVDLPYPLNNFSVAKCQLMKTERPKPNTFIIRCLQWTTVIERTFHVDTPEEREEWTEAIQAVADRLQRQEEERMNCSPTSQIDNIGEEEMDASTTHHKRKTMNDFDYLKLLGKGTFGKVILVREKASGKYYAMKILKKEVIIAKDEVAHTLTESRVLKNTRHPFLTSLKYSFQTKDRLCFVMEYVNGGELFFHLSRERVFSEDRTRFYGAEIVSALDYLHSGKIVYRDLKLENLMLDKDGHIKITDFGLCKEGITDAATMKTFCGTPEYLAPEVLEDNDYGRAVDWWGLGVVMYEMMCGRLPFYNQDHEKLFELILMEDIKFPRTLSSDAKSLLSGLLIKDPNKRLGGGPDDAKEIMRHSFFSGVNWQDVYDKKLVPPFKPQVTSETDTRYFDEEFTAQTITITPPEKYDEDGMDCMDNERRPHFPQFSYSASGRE
In short: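 pThr308-Akt3 in lysates was quantified by bead-proximity SureFire detection, pairing a phospho-specific antibody with a total Akt3 antibody. Before lysis, WM115 cells in 0.1% FBS medium were treated for 15 min at 37 °C with compound (final DMSO 0.3%), following a 10 min stimulation with 100 nM insulin. IC50 was obtained by 4-parameter fitting.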

Akt3 = target: T6, Akt3 (Homo sapiens, UniProt Q9Y243); assay: Akt activation assay (PDK1-mediated activation, LANCE Ultra crosstide TR-FRET), Akt3; assay type: biochemical; details: read-out: Biological Assay 1 IC50 (nM) Akt3
T6 construct: unspecified tag, removed (detagged) (cleaved yes); purchased SignalChem and Proteros (Akt3); Merck Millipore (PDK1) 14-452 (PDK1); none given for Akt3
T6 sequence (Q9Y243 whole entry): as above
In short: as §1

Structure (SMILES) | IC50 (Akt1) [nM] | IC50 (p-Akt1 in LNCaP cells) [nM] | IC50 (Akt2) [nM] | IC50 (p-Akt2 in WM115 cells) [nM] | IC50 (p-Akt3 in WM115 cells) [nM] | IC50 (Akt3) [nM]
COC1(OC)CCC(CC(=O)Nc2cnc(-c3ccc(C4(N)COC4)cc3)c(-c3ccccc3)c2)CC1 [Example 36, N-(6-(4-(3-aminooxetan-3-yl)phenyl)-5-phenylpyridin-3-yl)-2-(4,4-dimethoxycyclohexyl)acetamide] | > 30000 | > 30000 | > 30000 | 3800 | 230 | 100
CN([C@H]1CC[C@H](CC(=O)Nc2cnc(-c3ccc(C(C)(C)N)cc3)c(-c3ccsc3)c2)CC1)S(C)(=O)=O [Example A24, N-(6-(4-(2-aminopropan-2-yl)phenyl)-5-(thiophen-3-yl)pyridin-3-yl)-2-(trans-4-(N-methylmethylsulfonamido)cyclo-hexyl)acetamide] | > 30000 | > 30000 | 9600 | 8900 | 510 | 2000
COC(=O)N(C)[C@H]1CC[C@H](CC(=O)Nc2cnc(-c3ccc(C(C)(C)N)c(F)c3)c(-c3ccccc3)c2)CC1 [Example A28, Methyl (trans-4-(2-((6-(4-(2-aminopropan-2-yl)-3-fluorophenyl)-5-phenylpyridin-3-yl)amino)-2-oxoethyl)cyclohexyl)(methyl)carbamate] | > 30000 | > 30000 | > 30000 | > 20000 | 1500 | 5900
CCC(=O)N(C)[C@H]1CC[C@H](CC(=O)Nc2cc(-c3ccccc3)c(-c3ccc([C@]4(N)C[C@](C)(O)C4)c(F)c3)nn2)CC1 [Example 126, N-(trans-4-(2-((6-(4-(trans-1-amino-3-hydroxy-3-methylcyclobutyl)-3-fluorophenyl)-5-phenylpyridazin-3-yl)amino)-2-oxoethyl)cyclohexyl)-N-methylpropionamide] | > 30000 | > 30000 | 3000 | 3300 | 32 | 31
CCC(=O)N(C)[C@H]1CC[C@H](CC(=O)Nc2cc(-c3ccsc3)c(-c3ccc(C(C)(C)N)cc3)nn2)CC1 [Example 88, N-(trans-4-(2-((6-(4-(2-aminopropan-2-yl)phenyl)-5-(thiophen-3-yl)pyridazin-3-yl)amino)-2-oxoethyl)cyclohexyl)-N-methylpropionamide] | > 30000 | > 30000 | 8600 | 16000 | 240 | 64
CCC(=O)N(C)[C@H]1CC[C@H](CC(=O)Nc2cnc(-c3ccc(C4(N)CC4)c(F)c3)c(-c3ccccc3)c2)CC1 [Example A89, N-(trans-4-(2-((6-(4-(1-aminocyclopropyl)-3-fluorophenyl)-5-phenylpyridin-3-yl)amino)-2-oxoethyl)cyclohexyl)-N-methylpropionamide] | > 30000 | > 30000 | 4000 | 8300 | 130 | 80
CC(=O)N(C)[C@H]1CC[C@H](CC(=O)Nc2cc(-c3ccccc3)c(-c3ccc(C(C)(C)N)cc3)cn2)CC1 [Example 63, N-(5-(4-(2-aminopropan-2-yl)phenyl)-4-phenylpyridin-2-yl)-2-(trans-4-(N-methylacetamido)cyclohexyl)acetamide] | > 30000 | > 30000 | > 30000 | > 28000 | 360 | 300
CCC(=O)N(C)[C@H]1CC[C@H](CC(=O)Nc2cnc(-c3ccc(C(C)(C)N)cc3)c(-c3ccccc3)c2)CC1 [Example A95, N-(trans-4-(2-((6-(4-(2-aminopropan-2-yl)phenyl)-5-phenylpyridin-3-yl)amino)-2-oxoethyl)cyclohexyl)-N-methylpropionamide] | > 30000 | > 30000 | 3300 | 3100 | 110 | 54
COC(=O)N(C)[C@H]1CC[C@H](CC(=O)Nc2cc(-c3ccsc3)c(-c3ccc(C(C)(C)N)cc3)nn2)CC1 [Example A69, Methyl (trans-4-(2-((6-(4-(2-aminopropan-2-yl)phenyl)-5-(thiophen-3-yl)pyridazin-3-yl)amino)-2-oxoethyl)cyclohexyl)(methyl)carbamate] | > 30000 | > 30000 | 12000 | > 30000 | 710 | 220
CC(=O)N(C(C)C)[C@H]1CC[C@H](CC(=O)Nc2cnc(-c3ccc(C(C)(C)N)cc3)c(-c3ccccc3)c2)CC1 [Example A44, N-(6-(4-(2-aminopropan-2-yl)phenyl)-5-phenylpyridin-3-yl)-2-(trans-4-(N-isopropylacetamido)cyclohexyl)acetamide] | > 30000 | > 30000 | 13000 | 11000 | 440 | 1800
NC1(c2ccc(-c3cnc(NC(=O)C[C@H]4CC[C@H](N5CCOC5=O)CC4)cc3-c3ccccc3F)cc2)CCC1 [Example A65, N-(5-(4-(1-aminocyclobutyl)phenyl)-4-(2-fluorophenyl)pyridin-2-yl)-2-(trans-4-(2-oxooxazolidin-3-yl)cyclohexyl)acetamide] | > 30000 | > 30000 | 270 | 570 | 37 | 17

Further lines, results first:

IC50 (Akt1) [nM] | IC50 (p-Akt1 in LNCaP cells) [nM] | IC50 (Akt2) [nM] | IC50 (p-Akt2 in WM115 cells) [nM] | IC50 (p-Akt3 in WM115 cells) [nM] | IC50 (Akt3) [nM] | Structure (SMILES)
8900 | 5900 | 120 | 2600 | 48 | 7 | COC(=O)N(C(C)C)[C@H]1CC[C@H](CC(=O)Nc2cc(-c3ccccc3)c(-c3ccc([C@]4(N)C[C@](C)(O)C4)cc3)nn2)CC1 [Example 101, Methyl (trans-4-(2-((6-(4-(trans-1-amino-3-hydroxy-3-methylcyclobutyl)phenyl)-5-phenylpyridazin-3-yl)amino)-2-oxoethyl)cyclohexyl)(isopropyl)carbamate]
> 24000 | 12000 | 290 | 980 | 33 | 42 | CC(=O)N(CC(F)(F)F)[C@H]1CC[C@H](CC(=O)Nc2cc(-c3ccccc3)c(-c3ccc([C@]4(N)C[C@](C)(O)C4)cc3)cn2)CC1 [Example 117, N-(5-(4-(trans-1-amino-3-hydroxy-3-methylcyclobutyl)phenyl)-4-phenylpyridin-2-yl)-2-(trans-4-(N-(2,2,2-trifluoroethyl)acetamido)cyclohexyl)acetamide]
1300 | 4000 | 98 | 750 | 8 | 3 | C[C@]1(O)C[C@@](N)(c2ccc(-c3nnc(NC(=O)C[C@H]4CC[C@H](N5CCOC5=O)CC4)cc3-c3ccccc3)cc2)C1 [Example 58, N-(6-(4-(trans-1-amino-3-hydroxy-3-methylcyclobutyl)phenyl)-5-phenylpyridazin-3-yl)-2-(trans-4-(2-oxooxazolidin-3-yl)cyclohexyl)acetamide]
1200 | 1100 | 110 | 350 | 6 | 22 | COC(=O)N(C)[C@H]1CC[C@H](CC(=O)Nc2cnc(-c3ccc([C@]4(N)C[C@](C)(O)C4)cc3)c(-c3ccccc3)c2)CC1 [Example 44, Methyl (trans-4-(2-((6-(4-(trans-1-amino-3-hydroxy-3-methylcyclobutyl)phenyl)-5-phenylpyridin-3-yl)amino)-2-oxoethyl)cyclohexyl)(methyl)carbamate]
> 15000 | 9000 | 220 | 5100 | 300 | 20 | COC(=O)N(C(C)C)[C@H]1CC[C@H](CC(=O)Nc2cc(-c3ccccc3)c(-c3ccc([C@]4(N)C[C@](C)(O)C4)cc3)cn2)CC1 [Example A105, Methyl (trans-4-(2-((5-(4-(trans-1-amino-3-hydroxy-3-methylcyclobutyl)phenyl)-4-phenylpyridin-2-yl)amino)-2-oxoethyl)cyclohexyl)(isopropyl)carbamate]
